According to patent US8003658B2, “Quinazoline derivatives for inhibiting cancer cell growth and method for the preparation thereof” (Hanmi Holdings Co., Ltd., priority 2004, dated 2011):
Read-outs that look alike come from different tables or passages of the source.

Key:
A431 (ATCC: CRL-1555) = experiment: Test of cancer cell growth inhibition (SRB), A431; settings: read-out: IC50 A431
SW-620 (ATCC: CCL-227) = experiment: Test of cancer cell growth inhibition (SRB), SW-620; settings: read-out: IC50 SW-620
SK-Br3 (ATCC: HTB-30) = experiment: Test of cancer cell growth inhibition (SRB), SK-Br3; settings: read-out: IC50 SK-Br-3
[1] = EGFR overexpressed A431, 72 hours, SRB
[2] = SW-620 not having overexpressed EGFR and Erb-B2, 72 hours, SRB
[3] = Erb-B2 overexpressed SK-Br3, 72 hours, SRB

IC50 (A431 (ATCC: CRL-1555); [1]) [nM] | IC50 (SW-620 (ATCC: CCL-227); [2]) [µM] | IC50 (SK-Br3 (ATCC: HTB-30); [3]) [nM] | IC50 (A431 (ATCC: CRL-1555); Homo sapiens, A-431, 72 h) [nM] | IC50 (SW-620 (ATCC: CCL-227); Homo sapiens, SW-620, 72 h) [µM] | IC50 (SK-Br3 (ATCC: HTB-30); Homo sapiens, SK-BR-3, 72 h) [nM] | SMILES
310 | > 10 | 54 |  |  |  | CC(C)=CC(=O)NCCC(=O)Nc1ccc2ncnc(Nc3ccc(OCc4cccc(F)c4)c(Cl)c3)c2c1 [Example 29, 3-methyl-but-2-enonylic acid (2-{4-[3-chloro-4-(3-fluoro-benzyloxy)-phenylamino]-quinazolin-6-ylcarbamoyl}-ethyl)-amide]
 |  |  | 119 | > 10 | 38 | C=C(C)C(=O)NCCC(=O)Nc1ccc2ncnc(Nc3ccc(OCc4cccc(F)c4)c(Cl)c3)c2c1 [Example 30, N-(2-{4-[3-chloro-4-(3-fluoro-benzyloxy)-phenylamino]-quinazolin-6-ylcarbamoyl}-ethyl)-2-methyl-acrylamide]
 |  |  | 482 | > 10 | 45 | COCC(=O)NCC(OC(C)=O)C(=O)Nc1ccc2ncnc(Nc3ccc(OCc4cccc(F)c4)c(Cl)c3)c2c1 (stereo not drawn) [Example 39-2, acetic acid 1-{4-[3-chloro-4-(3-fluoro-benzyloxy)-phenylamino]-quinazolin-6-ylcarbamoyl}-2-(2-methoxy-acetylamino)-ethylester]
 |  |  | 327 | > 10 | 84 | COCC(=O)NCC(O)C(=O)Nc1ccc2ncnc(Nc3ccc(OCc4cccc(F)c4)c(Cl)c3)c2c1 (stereo not drawn) [Example 40, N-{4-[3-chloro-4-(3-fluoro-benzyloxy)-phenylamino]-quinazolin-6-yl}-2-hydroxyl-3-(2-methoxy-acetylamino)-propionamide]

Continued, compound first:

SMILES | IC50 (A431 (ATCC: CRL-1555); [1]) [nM] | IC50 (SW-620 (ATCC: CCL-227); [2]) [µM] | IC50 (SK-Br3 (ATCC: HTB-30); [3]) [nM] | IC50 (A431 (ATCC: CRL-1555); Homo sapiens, A-431, 72 h) [nM] | IC50 (SW-620 (ATCC: CCL-227); Homo sapiens, SW-620, 72 h) [µM] | IC50 (SK-Br3 (ATCC: HTB-30); Homo sapiens, SK-BR-3, 72 h) [nM]
C=CC(=O)N[C@@H](CCSC)C(=O)Nc1ccc2ncnc(Nc3ccc(OCc4cccc(F)c4)c(Cl)c3)c2c1 [Example 9, (2S)-2-acryloylamino-N-{4-[3-chloro-4-(3-fluoro-benzyloxy)-phenylamino]-quinazolin-6-yl}-4-methanesulfanyl-butyramide] | 60 | > 10 | 7 |  |  | 
C=CC(=O)N1CCCC1C(=O)Nc1ccc2ncnc(Nc3ccc(OCc4cccc(F)c4)c(Cl)c3)c2c1 (stereo not drawn) [Example 18, 1-acryloyl-pyrrolidine-2-carboxylic acid {4-[3-chloro-4-(3-fluoro-benzyloxy)-phenylamino]-quinazolin-6-yl}-amide] |  |  |  | 157 | > 10 | 290
CS(=O)(=O)CC(=O)NCCC(=O)Nc1ccc2ncnc(Nc3ccc(OCc4cccc(F)c4)c(Cl)c3)c2c1 [Example 21, N-{4-[3-chloro-4-(3-fluoro-benzyloxy)-phenylamino]-quinazolin-6-yl}-3-(2-methanesulfonyl-acetylamino)-propionamide] |  |  |  | 455 | > 10 | 16
CC=CC=CC(=O)NCCC(=O)Nc1ccc2ncnc(Nc3ccc(OCc4cccc(F)c4)c(Cl)c3)c2c1 [Example 24, hexa-2,4-dienonylic acid (2-{4-[3-chloro-4-(3-fluoro-benzyloxy)-phenylamino]-quinazolin-6-ylcarbamoyl}-ethyl)-amide] | 232 | > 10 | 105 |  |  | 
O=C(CCNC(=O)C1=CCCC1)Nc1ccc2ncnc(Nc3ccc(OCc4cccc(F)c4)c(Cl)c3)c2c1 [Example 25, cyclopent-1-en carboxylic acid (2-{4-[3-chloro-4-(3-fluoro-benzyloxy)-phenylamino]-quinazolin-6-ylcarbamoyl}-ethyl)-amide] |  |  |  | 138 | > 10 | 133
CC#CC(=O)NCCC(=O)Nc1ccc2ncnc(Nc3ccc(OCc4cccc(F)c4)c(Cl)c3)c2c1 [Example 27, but-2-ynoylic acid(2-{4-[3-chloro-4-(3-fluoro-benzyloxy)-phenylamino]-quinazolin-6-ylcarbamoyl}-ethyl)-amide] | 85 | > 10 | 10 |  |  | 
CC=CC(=O)NCCC(=O)Nc1ccc2ncnc(Nc3ccc(OCc4cccc(F)c4)c(Cl)c3)c2c1 [Example 28, but-2-enonylic acid (2-{4-[3-chloro-4-(3-fluoro-benzyloxy)-phenylamino]-quinazolin-6-ylcarbamoyl}-ethyl)-amide] | 197 | > 10 | 65 |  |  | 
